Reference: patent publication US9073876B2, “Flap modulators” (JANSSEN PHARMACEUTICA NV, priority 2013, dated 2015)
pIC50, pKi: −log10 of the molar value.

What was measured:
human FLAP = human FLAP (Homo sapiens (Human), UniProt P20292); experiment: FLAP binding assay (HTRF); conditions: human FLAP-containing membranes, HTRF format; average of two assay plates, duplicates; read-out: FLAP Binding wild type HTRF Ki
Outline: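 Reported data take the mean of two different plates carrying duplicate samples and use the HTRF ratio as the measured signal.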

[1] = test system: leukotriene pathway in human whole blood (LTB4 levels); experiment: Human whole blood assay (LTB4); assay type: cell-based; conditions: human whole blood diluted 1:1 in RPMI, stimulated with calcium ionophore A23187; single replicate
Outline: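 Single-replicate data from at least one healthy donor: compound pre-incubated 15 min at 37° Celsius in 1:1 RPMI-diluted heparinised blood, followed by 30 min calcium ionophore A23187 (7 μg/mL) challenge at 37° Celsius. LTB4 in plasma quantified by kit; IC50 via 4-parameter equation.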

Chain of human FLAP (P20292 whole entry): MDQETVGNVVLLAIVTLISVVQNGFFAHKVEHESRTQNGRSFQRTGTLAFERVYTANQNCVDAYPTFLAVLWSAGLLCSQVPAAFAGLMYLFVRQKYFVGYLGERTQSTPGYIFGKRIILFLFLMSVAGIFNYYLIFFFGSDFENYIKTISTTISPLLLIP

pKi (human FLAP)	pIC50 [1]	SMILES
8.01	7.41	NC(=O)c1ncc(Oc2c(C3CCC3)ccc(-c3cnc(N)cn3)c2F)cn1 [Example 329, 5-(3-(5-Aminopyrazin-2-yl)-6-cyclobutyl-2-fluorophenoxy)pyrimidine-2-carboxamide]
8.43	7.89	Cc1csc2ncnc(Oc3c(C4CCC4)ccc(-c4cnc(N)cn4)c3F)c12 [Example 331, 5-(4-Cyclobutyl-2-fluoro-3-((5-methylthieno[2,3-d]pyrimidin-4-yl)oxy)phenyl)pyrazin-2-amine]
7.34	6.35	Nc1cnc(-c2ccc(C3CCC3)c(OCCNc3ccnc(N)n3)c2F)cn1 [Example 332, N^4-(2-(3-(5-Aminopyrazin-2-yl)-6-cyclobutyl-2-fluoro-phenoxy)ethyl)pyrimidine-2,4-diamine]
